According to patent US10792301B2, “Therapeutic polysaccharide midi-GAGR and related materials and methods” (priority 2015, dated 2020):

Legend:
[1] = tested on: Rat embryonic cortical neurons; assay: Neuritic atrophy caused by 4-HNE, Scholl ring analysis; format: cell-based; details: pre-treatment 2 days (1 μM; ascorbate 100 μM), then 25 μM 4-HNE 1 day
Description: Rat embryonic cortical neurons were treated with mock (FIG. 11C), 1 μM HA-GAGR (high acyl gellan gum), 1 μM dextran, 100 μM ascorbate or 1 μM midi-GAGR (FIG. 13A) for 2 days and then with 25 μM 4-hydroxynonenal (4-HNE), a lipid peroxide, for 1 day. After fixation, neurons were immunostained with anti-synaptophysin antibody (green) and rhodamine-phalloidin (actin: red). Scholl ring analysis was performed.

[2] = tested on: Differentiated dopaminergic PC12 cells; assay: LIVE/DEAD viability of differentiated PC12 cells exposed to 6-OHDA; format: cell-based; details: 1 μM for 6 h, then 30 μM 6-OHDA for 24 h
Description: Differentiated dopaminergic PC12 cells and primary mouse embryonic cortical neurons (E17, DIV14) were treated with mock (H2O) or 1 μM of dextran, alginate, HA-GAGR or midi-GAGR for 6 h and insulated by oxidative stressors (30 μM 6-OHDA [PC12] and 10 μM amyloid β peptide [cortical neurons]) for 24 h.

FGFR1 = biological target: T1, FGFR1 (Mus musculus, UniProt P16092); assay: Affinity chromatography with midi-GAGR- or dextran-conjugated sepharose beads, FGFR1 immunoblot; format: binding; details: brain extract in 0.5% Igepal PMEE buffer
T1 construct: Whole mouse brains were homogenized for cytosol extraction in PMEE buffer containing 1% Igepal CA-630; from tissue; host or cells: mouse cerebral cortex / whole brain detergent extract
Description: To examine whether midi-GAGR interacts with synaptosomal FGFR1 or not, an affinity chromatography using midi-GAGR-conjugated sepharose beads was performed. Either midi-GAGR or dextran were conjugated to epoxy-activated sepharose 6B that is a pre-activated medium that can be conjugated to the hydroxyl groups of carbohydrates. Briefly, 200 μL of 7.4 mM midi-GAGR or 5 kD dextran in H2O was mixed with 200 μL of epoxy-activated sepharose beads in a microtube and incubated on a rotator (16 h, 37° C.). The mixture was spun down at 1,000×g (10 min) to separate bead-bound polysaccharides from unbound. Unoccupied active sites on beads were blocked by incubation (4 h, 45° C.) in 1 M ethanolamine (pH 8). Then, beads were washed with three cycles of alternating pH solutions—0.1 M acetate buffer (pH 4) and 0.1 M Tris-HCl buffer (pH 8), both containing 0.5 M NaCl. The conjugation of polysaccharides to beads was confirmed by phenol-sulfuric acid colorimetry. Cerebral cortices were dissected from four female mice (BALB/C, 8 wks old) and homogenized with a hand grinder in 1 mL of PMEE homogenization buffer plus 1% Igepal CA-630 and protease inhibitors (PIs). The homogenate was centrifuged at 1,000×g (10 min) to remove nuclei and undisrupted cells. The supernatant was subjected to 5-6 strokes through 27 G needle. Post-nuclear supernatant was centrifuged at 1,000×g (15 min). […]

[3] = tested on: primary mouse cortical neurons (E17, DIV4); assay: Neurite outgrowth in primary mouse cortical neurons; format: cell-based; details: 2 days; 1 μM midi-GAGR, dextran, alginate; 0.1 μM LA-GAGR; 0.01 μM HA-GAGR
Description: To analyze the effect of polysaccharides on neurite outgrowth, primary mouse cortical neurons were treated with vehicle (H2O) or 1 μM of dextran, alginate, or midi-GAGR, 0.01 μM of HA-GAGR, or 0.1 μM of LA-GAGR for 2 days prior to immunocytochemistry using anti-α-tubulin antibody and secondary Alexa488nm antibody. An etched grid coverslip containing 200 numbered boxes was used to select neurons objectively for image acquisition and analysis. A total of 24 boxes were randomly selected per treatment group. All the neurons having total neurite length longer than 4 times of the diameter of neuron cell body were chosen for image analysis. The total length of the neurites of each neuron was measured using Metamorph and used to calculate average total neurite length. To examine the effect of polysaccharides on the phosphorylation (activation) of nuclear CREB, neurons were stained with anti-pCREB antibody (Abcam & Santa Cruz biotechnologies, 2nd antibody with Alexa568nm), anti-α-tubulin antibody (Sigma, 2nd antibody with Alexa488nm), and DAPI (Sigma) after two-day incubation with vehicle (H2O) or 1 μM of dextran, alginate, or midi-GAGR, 0.01 μM of HA-GAGR, or 0.1 μM of LA-GAGR. […] The images of neurons on coverslips were taken by confocal microscopy at the same gain (850), offset (˜0.01) and exposure time (2 sec). The intensity of the staining of nuclear pCREB was measured using Metamorph and used to calculate average intensity. In addition, the phosphorylation of CREB in the cytosols of mouse cortical neurons treated with polysaccharides were detected by immunoblotting. Primary mouse neurons were dissected from 16 mouse embryos (E17) and plated in the wells of 6-well plates (1×10^6 cells/well), differentiated for 6 days, and treated with polysaccharides for 48 h. […] The protein bands on blots recognized by anti-pCREB (Santa Cruz Biotechnologies) and anti-CREB antibodies were detected on Amersham Hyperfilm™ ECL films (GE Healthcare Life Science) using SuperSignal® West Pico Chemiluminescent Substrate (Thermo Scientific).

[4] = tested on: phosphorylated CREB in mouse embryonic cortical neurons; assay: Nuclear p-CREB immunostaining in cortical neurons (Example 2); format: cell-based; details: 1 μM, 24 h
Description: Differentiated PC12 cells and mouse embryonic cortical neurons (E17, DIV14) were treated with mock, dextran, alginate, HA-GAGR or midi-GAGR (1 μM) for 24 h and fixed in 3.7% paraformaldehyde. The fixed cells and neurons were immunostained with antibodies against α-tubulin and phosopho-CREB (p-CREB) along with DAPI (nucleus).

T1 sequence (P16092 22-822): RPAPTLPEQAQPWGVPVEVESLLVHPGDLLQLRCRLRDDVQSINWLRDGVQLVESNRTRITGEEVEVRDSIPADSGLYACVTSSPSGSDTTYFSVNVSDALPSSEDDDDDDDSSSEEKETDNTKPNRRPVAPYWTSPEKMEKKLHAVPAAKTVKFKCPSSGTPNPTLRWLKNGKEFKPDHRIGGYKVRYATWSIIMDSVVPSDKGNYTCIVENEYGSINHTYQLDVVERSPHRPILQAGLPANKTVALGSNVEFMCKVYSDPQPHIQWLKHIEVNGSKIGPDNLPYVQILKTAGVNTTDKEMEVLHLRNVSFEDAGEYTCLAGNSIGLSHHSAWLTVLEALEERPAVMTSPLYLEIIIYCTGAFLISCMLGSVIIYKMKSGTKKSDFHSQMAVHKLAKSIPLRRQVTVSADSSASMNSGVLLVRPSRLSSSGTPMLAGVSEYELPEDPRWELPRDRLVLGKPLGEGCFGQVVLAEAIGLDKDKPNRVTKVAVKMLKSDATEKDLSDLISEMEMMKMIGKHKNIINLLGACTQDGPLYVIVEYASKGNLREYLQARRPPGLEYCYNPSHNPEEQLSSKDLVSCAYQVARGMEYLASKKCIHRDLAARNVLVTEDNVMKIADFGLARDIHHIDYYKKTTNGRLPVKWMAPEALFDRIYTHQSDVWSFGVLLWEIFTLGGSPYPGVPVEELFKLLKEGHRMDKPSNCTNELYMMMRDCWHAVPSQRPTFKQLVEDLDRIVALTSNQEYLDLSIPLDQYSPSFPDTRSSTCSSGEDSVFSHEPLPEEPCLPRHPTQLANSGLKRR

FGFR1 eluted from polysaccharide-conjugated beads (FGFR1): not from dextran beads
Substance: dextran
neurites in the presence of 4-HNE (neuritic atrophy) [1]: lost neuritis
6-OHDA-induced cell death [2]: did not
fold change in average total neurite length compared to vehicle [3]: did not enhance neuritogenesis
increase of the levels of nuclear p-CREB [4]: not significantly increased
